Molecular target: T1, DRD4 (Homo sapiens, UniProt P21917)
T1 construct: purchased Promega (in-house HiBiT-GPCR construct library, NanoBRET)
T1 sequence (P21917 1-419): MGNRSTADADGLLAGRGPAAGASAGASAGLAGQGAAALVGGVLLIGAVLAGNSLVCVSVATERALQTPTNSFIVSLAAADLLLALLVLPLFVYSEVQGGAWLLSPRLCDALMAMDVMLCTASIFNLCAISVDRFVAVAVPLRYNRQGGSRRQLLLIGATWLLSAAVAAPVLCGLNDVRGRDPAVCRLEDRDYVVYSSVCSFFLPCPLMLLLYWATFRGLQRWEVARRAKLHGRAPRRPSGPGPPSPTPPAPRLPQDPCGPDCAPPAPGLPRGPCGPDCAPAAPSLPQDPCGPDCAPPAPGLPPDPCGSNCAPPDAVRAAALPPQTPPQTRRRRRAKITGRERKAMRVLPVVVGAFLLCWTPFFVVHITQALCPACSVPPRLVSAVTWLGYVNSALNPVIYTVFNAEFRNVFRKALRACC
Assay: NanoBRET screen HiBiT-DRD4 in HEK293
Assay type: binding
Method: Each tracer candidate was screened across the entire library of HiBiT-GPCR constructs using NanoBRET as the detection modality. As depicted in Figure 4A, the specificity of interactions was evaluated through decrease in BRET due to competitive displacement of a bound tracer by excess parental compound. Each tracer was analyzed for binding to each HiBiT-GPCR fusion in the absence and in the presence of competing parental compound. Briefly, HEK293 cells were transfected with HiBiT-GPCR constructs diluted into promoterless DNA to reduce expression and maximize translocation to the cell surface. Each tracer candidate was then screened at concentrations of 1 μM and 0.1 μM across cells expressing these fusions. Cells were treated for 1.5 h with tracer either alone or in the presence of 20 μM competing parental compound (i.e., control). BRET was measured upon addition of purified LgBiT and subsequent complementation with HiBiT genetically fused to a GPCR. The specificity of interactions was assessed through a decrease in BRET signal due to competitive displacement of the bound tracer. To further gauge the robustness of these interactions, the fold response over the control (i.e., BRETtracer/BRETcontrol) was calculated. We chose a 1.5-fold response, which translates to ≥7-fold signal over noise as the minimal threshold required to score an interaction as positive.
HiBiT-GPCR DNA constructs were diluted in 10 mM Tris pH 8 to a final concentration of 0.01 μg/μL, arrayed in 96-well plates and stored at −20 °C. For transfection, HEK293 cells were suspended in Opti-MEM (without phenol red) supplemented with 2% fetal bovine serum (Seradigm) and 100 units/mL penicillin–streptomycin (Gibco) at a final concentration of 220,000 cells/mL and dispensed into white 96-well plates at 90 μL/well. Subsequent transfections and screens were carried using an Agilent Bravo Automated Liquid Handling Platform. First, the 96-well HiBiT DNA arrays were diluted 25-fold in Opti-MEM (without serum or phenol red) to a final concentration of 0.0004 μg/μL and 20 μL of the diluted DNAs were transferred into new 96-well plates. Next, promoterless carrier DNA (1 μg/μL) was diluted 25-fold (0.04 μg/μL) and then dispensed into the diluted arrays at 20 μL/well. Following brief mixing, Viafect transfection reagent (Promega) diluted 16-fold into Opti-MEM was dispensed into the plates at 40 μL/well. After mixing by pipetting, plates were incubated for 10 min on the pipetting station deck. The DNA-transfection reagent complexes were then added to plates containing cells. To facilitate the screen, 10 μL of DNA-transfection reagent complexes were added in duplicates to the top 4 and bottom 4 rows, resulting in two identical 48-well arrays per plate. Plates with transfected cells were incubated for 18–20 h at 37 °C/5% CO2. A screen of each tracer across the entire library using two different concentrations requires duplicate plates of transfected cells. Depending on the number of tracers being screened, transfections can be scaled up using the same ratios. The next day, for each tracer, four 20× screening solutions in tracer dilution buffer (Promega) were prepared: two duplicates at final concentration of 20 μM and two duplicates at a final concentration of 2 μM. […] The four resulting solutions were diluted 4-fold in Opti-MEM without serum or phenol red to generate 5× solutions (5 µM and 0.5 µM tracer +/− 100 μM competing compound). To screen the library, a BioTek MultiFlo FX liquid dispenser was used to dispense 22.5 µL of tracer solution to the top 4 rows and 22.5 µL tracer + competing compound solution to the 4 bottom rows. Plates were briefly mixed on an orbital shaker and incubated for 1.5 h at room temperature. […] Plates were briefly mixed on an orbital shaker and incubated for 15 min to allow complementation.

| Structure (SMILES) | NanoBRET Fold Response (DRD4, tracer 0.1μM) | NanoBRET Fold Response (DRD4, tracer 1μM) | other results |
| --- | --- | --- | --- |
| CCOC(=O)c1cc(C#N)c(N2CCC(C(=O)NS(=O)(=O)Cc3ccccc3/C=C/C(=O)NCCNC(=O)CCc3ccc4n3[B-](F)(F)[N+]3=C(c5ccc[nH]5)C=CC3=C4)CC2)nc1C [AZD1283-1-NB590] | – | – | NanoBRET Fold Response (DRD4, 0.1μM): 1.05; NanoBRET Fold Response (DRD4, 1μM): 1.13 |
| N#CN/C(=N\CCNC(=O)c1ccc(N)cc1)NCCCOc1cccc(CN2CCCCC2)c1 [Aminopotentidine (unmodified)] | – | – | NanoBRET Fold Response (DRD4, other tracers/Aminopotentidine (unmodified), 0.1μM): 1.24; NanoBRET Fold Response (DRD4, other tracers/Aminopotentidine (unmodified), 1μM): 1.17 |
| N#CN=C(NCCCOc1cccc(CN2CCCCC2)c1)NCCNC(=O)CCOCCOCCOCCOCCNC(=O)CCc1ccc2n1[B-](F)(F)[N+]1=C(c3ccc[nH]3)C=CC1=C2 [Aminopotentidine-2-NB590] | 1.00 | 0.98 | – |
| CN(C)CCC=C1c2ccccc2CCc2ccc(C(=O)NCCNC(=O)CCOCCOCCOCCOCCNC(=O)CCc3ccc4n3[B-](F)(F)[N+]3=C(c5ccc[nH]5)C=CC3=C4)cc21 [Amitriptyline-a-2-NB590] | – | – | NanoBRET Fold Response (tracer at 0.1μM): 1.07; NanoBRET Fold Response (tracer at 1μM): 1.09 |
| CN(C)CCC=C1c2ccccc2CCc2ccc(C(=O)NCCNC(=O)CCOCCOCCOCCOCCNC(=O)CCc3ccc4n3[B-](F)(F)[N+]3=C(c5ccc[nH]5)C=CC3=C4)cc21 [Amitriptyline-b-2-NB590] | – | – | NanoBRET Fold Response (tracer at 0.1μM, listed as amitriptyline-b-2-NB590): 1.05 |
| CN(CCC=C1c2ccccc2CCc2ccccc21)C(=O)CCOCCOCCOCCOCCNC(=O)CCc1ccc2n1[B-](F)(F)[N+]1=C(c3ccc[nH]3)C=CC1=C2 [Amitriptyline-e-2-NB590] | – | – | NanoBRET Fold Response (tracer at 1μM): 1.01 |
| COc1ccc2c(n1)c(CCNC(C)=O)cn2CCNC(=O)CCc1ccc2n1[B-](F)(F)[N+]1=C(c3ccc[nH]3)C=CC1=C2 [Azamelatonin-1-NB590] | – | – | NanoBRET Fold Response (0.1μM tracer): 0.77; NanoBRET Fold Response (1μM tracer): 1.03 |
| COc1ccc2[nH]c(-c3ccc(CNC(=O)CCOCCOCCOCCOCCNC(=O)CCc4ccc5n4[B-](F)(F)[N+]4=C(c6ccc[nH]6)C=CC4=C5)cc3)c(CCNC(C)=O)c2n1 [AzomelatoninICO9-2-NB590] | – | – | NanoBRET Fold Response (0.1μM tracer): 0.59; NanoBRET Fold Response (1μM tracer): 0.88 |
| O=C(CCOCCOCCOCCOCCNC(=O)CCc1ccc2n1[B-](F)(F)[N+]1=C(c3ccc[nH]3)C=CC1=C2)NCCCN1CCN(C2=Nc3cc(Cl)ccc3Nc3ccccc32)CC1 [Clozapine-a-2-NB590] | – | – | NanoBRET Fold Response (DRD4, 0.1μM tracer): 3.46; NanoBRET Fold Response (DRD4, 1μM tracer): 3.88 |
| O=C(CCOCCOCCOCCOCCNC(=O)CCc1ccc2n1[B-](F)(F)[N+]1=C(c3ccc[nH]3)C=CC1=C2)NCCCN1CCN(C2=Nc3ccccc3Oc3ccc(Cl)cc32)CC1 [Loxapine-a-2-NB590] | 1.57 | 2.56 | – |
| COc1ccccc1N1CCN(CCCCN2C(=O)c3ccc(CNC(=O)CCOCCOCCOCCOCCNC(=O)CCc4ccc5n4[B-](F)(F)[N+]4=C(c6ccc[nH]6)C=CC4=C5)cc3C2=O)CC1 [NAN-190-2-NB590] | 1.09 | 1.80 | – |
| COc1ccccc1N1CCN(CCCCN2C(=O)c3ccc(CNC(=O)CCOCCNC(=O)c4ccc(CNC(=O)CCc5ccc6n5[B-](F)(F)[N+]5=C(c7ccc[nH]7)C=CC5=C6)cc4)cc3C2=O)CC1 [NAN-190-3-NB590] | 1.23 | 1.92 | – |
| O=C(CCc1ccc2n1[B-](F)(F)[N+]1=C(c3ccc[nH]3)C=CC1=C2)NCc1ccc(C(=O)NCCOCCC(=O)N[C@@H]2CC[C@@]3(O)[C@H]4Cc5ccc(O)c6c5[C@@]3(CCN4CC3CC3)[C@H]2O6)cc1 [Naltrexone-3-NB590] | 0.82 | 1.11 | – |
| Cc1cc2c(s1)Nc1ccccc1N=C2N1CCN(CCCNC(=O)CCOCCOCCOCCOCCNC(=O)CCc2ccc3n2[B-](F)(F)[N+]2=C(c4ccc[nH]4)C=CC2=C3)CC1 [Olanzapine-a-2-NB590] | 1.68 | 2.27 | – |
| O=C(CCc1ccc2n1[B-](F)(F)[N+]1=C(c3ccc[nH]3)C=CC1=C2)NCc1ccc(C(=O)NCCOCCOCCNCC(O)COc2cccc3ccccc23)cc1 (centres unmarked) [Propranolol-3-NB590] | – | – | NanoBRET Fold Response (DRD4, 0.1μM): 0.84; NanoBRET Fold Response (DRD4, 1μM): 0.99 |
| O=C(CCc1ccc2n1[B-](F)(F)[N+]1=C(c3ccc[nH]3)C=CC1=C2)NCCOCCOCCNC(=O)OCCOCCN1CCN(C2=Nc3ccccc3Sc3ccccc32)CC1 [Quetiapine-a-2-NB590] | 1.05 | 1.49 | – |
| Cc1nc2n(c(=O)c1CCN1CCC(c3noc4cc(F)ccc34)CC1)CCCC2OC(=O)NCCOCCOCCOCCOCCNC(=O)CCc1ccc2n1[B-](F)(F)[N+]1=C(c3ccc[nH]3)C=CC1=C2 (centres unmarked) [Risperidone-2-NB590] | 1.55 | 3.40 | – |
| CC(C)N(CC[C@H](c1ccccc1)c1cc(CCNC(=O)CCOCCOCCOCCOCCNC(=O)CCc2ccc3n2[B-](F)(F)[N+]2=C(c4ccc[nH]4)C=CC2=C3)ccc1O)C(C)C [Tolterodine-2-NB590] | 0.99 | 0.96 | – |
| CC(C)N(CC[C@H](c1ccccc1)c1cc(CCNC(=O)c2ccc(CNC(=O)CCc3ccc4n3[B-](F)(F)[N+]3=C(c5ccc[nH]5)C=CC3=C4)cc2)ccc1O)C(C)C [Tolterodine-BZ-NB590] | 0.94 | 1.09 | – |
| CCCn1c(=O)c2[nH]c(-c3ccc(OCC(=O)NCCNC(=O)CCOCCNC(=O)c4ccc(CNC(=O)CCc5ccc6n5[B-](F)(F)[N+]5=C(c7ccc[nH]7)C=CC5=C6)cc4)cc3)nc2n(CCC)c1=O [XAC-3-NB590] | 1.27 | 0.82 | – |

Reference: publication PMC8151276, “An Integrated Approach toward NanoBRET Tracers for Analysis of GPCR Ligand Engagement” (Molecules, 2021)
